Measured values as given in patent publication US12054509B2, “Antimicrobial compounds, compositions, and uses thereof” (Lakewood Amedex, Inc., priority 2017, dated 2024).

How the values were obtained:
[1] = system: Helicobacter pylori SS1 (CagA+, VacA+); assay: Helicobacter pylori SS1 infection in C57BL6 mice, bacterial stomach titers; format: in vivo
Excerpt: The mouse strain used in this study is C57BL6 ranging from 5-6 weeks in age and 18-22 grams in weight. Mice are housed five to a cage with free access to food and water in accordance with NIB guidelines.
A bacterial strain of Helicobacter pylori SS1 (CagA+, VacA+) is adapted for the mouse model from a human clinical isolate and validated in this infection model.
At 6 days prior to infection, a frozen stock is streaked onto one to two Columbia 5% sheep blood agar plates, and the plates are microaerophilically incubated for 72 hours at 37° C. After 72 hours, the plate growth is subcultured onto five Columbia 5% sheep blood agar plates and is incubated as before. After another 72 hours of incubation, the plates are removed, and the plate growth is suspended in sterile 0.9% saline to an OD of 1.5-2.0 at 530 nm. This OD is approximately equal to 1.0e+09 CFU/mL, which is used to orally infect the mice on all 3 infection days. To infect mice, the mice are orally dosed 0.25 mL of the 1.0e+09 CFU/mL via a 20-22 G gavage needle. Mice need to be fasted only before the first infection.
At 1 week post-infection, mice are treated with Nu-8. Multiple dose antibiotic therapies are administered orally at 0.2 mL/dose. Antibiotics are administered 2 times per day and continued for 7 days. The control group is administered the vehicle alone.
Food is removed from cages 18 hours prior to euthanizing animals and each cage is clearly labeled that the animals are being experimentally fasted. Mice are euthanized (CO2 & cervical dislocation). […] The excised stomach is placed into a sterile petri dish and the luminal contents are rinsed away with sterile 1×PBS. Each rinsed stomach is placed into a 14-mL Falcon tube containing 2 mL of 1×PBS and stored on ice. Each stomach is homogenized, 10-fold serial diluted in 1×PBS, spot plated onto Columbia agar with 3.5% laked horse blood±the DENT selective antibiotic supplement, and microaerophilically incubated for 5 days at 37° C. Then, colonies are counted.
Nu-8 is administered at various doses (mg/kg), orally, twice-a-day for 7 days. The formulations, concentration and dose volumes for treatment is established prior to dosing. The positive control group consists of a triple therapy regimen (omeprazole, amoxicillin, and clarithromycin). Negative control used dosing solution without drugs.

Pseudomonas aeruginosa = assay: MIC against a single isolate (Example 26); format: cell-based; settings: single isolate, read-out: P. aeruginosa MIC
Description: Bacterial strains evaluated in this study include Escherichia coli, Klebsiella spp, Serratia marcescens, Proteus mirabilis/vulgaris, Citrobacter spp, Providencia spp, Morganella morganii, Pseudomonas aeruginosa, Staphylococcus aureus (MRSA only), and Enterococcus faecalis. Nu-8 test solutions are adjusted to pH 3.5 with citric acid, and MIC is evaluated per the CLSI methods in Mueller-Hinton broth supplemented accordingly to facilitate growth of specific strains.
MIC was determined as per Example 9 using LAI-101, LAI-102, Nu-10, LAI-105, LAI-106, Nu-3, and Nu-8 against a single isolate of Escherichia coli. Pseudomonas aeruginosa, Staphylococcus aureus (MRSA only), and Candida Albicans. For all microbe species, the LAI-101, LAI-102, Nu-10, LAI-105, and LAI-106 all perform at least as well as, and in many experiments better than, Nu-8 and Nu-3, which are both already quite active compounds.

[2] = system: Escherichia coli (strain CFT073, TPPS 1041); assay: Urinary tract infection model in BALB/c mice, confirmatory efficacy (Example 11); format: in vivo; settings: for bacterial burden (bladder): 20 minutes post-treatment
Excerpt: Female BALB/c mice (20-22 g) ordered from Envigo are acclimated to housing conditions and handled in accordance with Animal Use Protocol (AUP) number TP-08. Animals are fed irradiated Teklad Global 29 18 Rodent Diet and water ad libitum. Mice are housed 6/cage in static cages with irradiated ⅛″ Teklad corn cobbedding 7902 inside bioBubble® clean rooms that provide H.E.P.A filtered air into the bubble environment at 100 complete air changes per hour. The environment is controlled to a temperature range of 74°±4° F. and a humidity range of 30-70%. All procedures carried out in this experiment are conducted in compliance with the laws, regulations, and guidelines of the National Institutes of Health and with the approval of the TransPharm Preclinical Solutions Animal Care and Use Committee.
A clinical isolate of Escherichia coli (strain CFT073, TPPS 1041) are procured from the University of Michigan.
The organism is grown overnight at 37° C. in ambient atmosphere on trypticase soy agar plates supplemented with 5% sheep blood cells. The culture is aseptically swabbed and transferred to tubes of trypticase soy broth. The optical density is determined at 600 nm. The culture is diluted to provide an inoculum of approximately 7.5 login CFU per mouse in a volume of 30 μL. Instillation of the bacterial challenge constituted time 0 hour for the study. Inoculum counts are estimated before inoculation by optical density and confirmed after inoculation by dilution and back counts.
One hour prior to bacterial challenge, water is removed from animal cages. On Day 0 at 0 hours, mice are anesthetized using isoflurane and urine is expressed from the bladder by applying gentle pressure to the abdomen with the thumb. Mice are infected with bacteria via transurethral injection in a volume of 30 μL. Water is returned to the cages immediately following the challenge. Challenge is performed in a BL2 surgical suite.
Nu-8 (Test article) is prepared immediately before each dosing. Nu-8 is dissolved in sterile saline and adjusted to pH 3.5 with phosphoric acid. At 23 hours post-challenge, water is removed from animal cages. One hour later, mice are anesthetized using isoflurane and residual urine is expressed from the bladder. Mice are treated with test article or controls via transurethral dosing in a volume of 30 μL according to TABLE 9 (showing Animal Challenge and Treatment Schedule). All treatments are administered in a BSL2 surgical suite.
Immediately following treatment administration, the urethral opening is occluded using Locktite gel superglue. One drop of glue is placed at the urethral opening and the opening is held together for 5-10 seconds using tissue forceps to ensure the urethral opening is occluded and the adhesive is dry. Animals remained under anesthetic following urethral occlusion. […]

## CCCCOP(=O)(O)OC[C@H]1O[C@@H](n2ccc(N)nc2=O)C[C@@H]1OP(=O)(O)OCCCC [Nu-8, sodium ((2R,3S,5R)-5-(4-amino-2-oxopyrimidin-1(2H)-yl)-3-((butoxyoxidophosphor-yl)oxy)tetrahydrofuran-2-yl)methyl butyl phosphate]
[1]; 0.2 mg (1 mg/mL, 0.2 mL) PO bid 7 days, +7 Days
  mean bacterial stomach titer: 5.62 log10 CFU
[1]; 0.2 mg (1 mg/mL, 0.2 mL) PO bid 7 days, +14 Days
  mean bacterial stomach titer: 6.2 log10 CFU
[1]; 1.0 mg (5 mg/mL, 0.2 mL) PO bid 7 days, +7 Days
  mean bacterial stomach titer: 5.21 log10 CFU
[1]; 1.0 mg (5 mg/mL, 0.2 mL) PO bid 7 days, +14 Days
  mean bacterial stomach titer: 5.67 log10 CFU
[1]; 2 mg (10 mg/mL, 0.2 mL) PO bid 7 days, +7 Days
  mean bacterial stomach titer: 4.74 log10 CFU
[1]; 2 mg (10 mg/mL, 0.2 mL) PO bid 7 days, +14 Days
  mean bacterial stomach titer: 5.81 log10 CFU
Pseudomonas aeruginosa
  MIC: > 50 mg/mL
[2]; 205 mg/kg pH 3.5 transurethral
  bacterial burden (bladder): 6.5 log 10
[2]; 410 mg/kg pH 3.5 transurethral
  bacterial burden (bladder): 5.0 log 10
[2]; 820 mg/kg pH 3.5 transurethral, 10 minutes post-treatment
  average bladder CFU burden: 6.3 log 10
[2]; 820 mg/kg pH 3.5 transurethral
  bacterial burden (bladder): 5.4 log 10
